Measurements as given in patent US9290488B2, “Azetidine-substituted quinoxalines as opioid receptor like-1 modulators” (priority 2011, dated 2016).
Where two headings read alike, the source gives them in different places.

Legend:
[1] = In vitro metabolic stability, rat liver microsomes; conditions: for Metabolic Stability (%) Rat: % of compound remaining after 30 min incubation at 37° C., 2 μM, 0.5 mg/mL rat liver microsomes
[2] = In vitro metabolic stability, human liver microsomes; conditions: % of compound remaining after 30 min incubation at 37° C., 2 μM, 0.5 mg/mL human liver microsomes
[3] = male, Crj:CD (SD), pH 7.4
[4] = In vitro assay of free unbound compound (equilibrium dialysis of rat serum); conditions: for Free Unbound Drug Fraction (%): rat serum, 2 μg/mL, 24 h equilibrium dialysis at 37° C. against PBS

| SMILES | Metabolic Stability (%) Rat [1] [%] | Metabolic Stability (%) Human [2] [%] | metabolic stability upon exposure to rat liver microsomes, times greater than counterpart d=2 compound [3] [times] | Free Unbound Drug Fraction (%) [4] [%] | free unbound drug fraction, times greater than counterpart d=2 compound ([4]; ratio B20a(ii) / CC02, rat serum) | metabolic stability upon exposure to rat liver microsomes, times greater than counterpart d=2 compound ([1]; ratio d=1 compound / d=2 counterpart, rat liver microsomes) |
| --- | --- | --- | --- | --- | --- | --- |
| O=C(O)[C@@H]1CCCN1c1nc2ccccc2n([C@H]2C[C@H]3CCC[C@@H](C2)N3[C@H]2C[C@@H]3CCC[C@@H](C3)C2)c1=O [CC01, reference compound] | 100 |  |  |  |  |  |
| O=C(O)[C@@H]1CCN1c1nc2ccccc2n([C@H]2C[C@H]3COC[C@@H](C2)N3[C@H]2C[C@@H]3CCC[C@@H](C3)C2)c1=O [C2a(ii)] | 86 | 67 | 2.6 |  |  |  |
| CC[C@@H]1C[C@@H]2C[C@H](C1)C[C@@H](N1[C@@H]3CCC[C@H]1C[C@@H](n1c(=O)c(N4CC[C@H]4C(=O)O)nc4ccccc41)C3)C2 [B20a(ii)] | 84 | 70 |  | 3.3 | over 2.7 times |  |
| CC12C[C@H]3C[C@@H](N4[C@@H]5COC[C@H]4C[C@@H](n4c(=O)c(N6CCC[C@H]6C(=O)O)nc6ccccc64)C5)C[C@@H]1C[C@@H]2C3 [CC04, reference compound] | 14 | 21 |  |  |  |  |
| CC12C[C@H]3C[C@@H](N4[C@@H]5COC[C@H]4C[C@@H](n4c(=O)c(N6CC[C@H]6C(=O)O)nc6ccccc64)C5)C[C@@H]1C[C@@H]2C3 [C20a(ii)] | 62 | 6.5 |  |  |  | over 4.4 times |
| CC12C[C@H]3C[C@@H](N4[C@@H]5CCC[C@H]4C[C@@H](n4c(=O)c(N6CCC[C@H]6C(=O)O)nc6ccccc64)C5)C[C@@H]1C[C@@H]2C3 [CC02, reference compound] | 97 | 58 |  | 1.2 |  |  |
| O=C(O)[C@@H]1CCCN1c1nc2ccccc2n([C@H]2C[C@H]3COC[C@@H](C2)N3[C@H]2C[C@@H]3CCC[C@@H](CC3)C2)c1=O [CC03, reference compound] | 33 | 60 |  |  |  |  |
